Source: patent US20250325503A1, “NEW USE OF N,N-BIS-2-MERCAPTOETHYL ISOPHTHALAMIDE” (EMERAMED LIMITED, priority 2016, published 2025)

Tests used:
[1] = test system: paracetamol intoxicated mice; assay: Paracetamol intoxicated mice study, i.p. paracetamol (ALT, AST); type: in vivo; conditions: paracetamol 300 mg/kg I.P., 24 hours
Method: In normal mice, the liver enzyme alanine transaminase (ALT) level is about 36-40 unit/L and the liver enzyme aspartate transaminase (AST) level is about 90 unit/L. […] The ratio of AST: ALT can also be relevant in humans; a value at or below 1 is considered to indicate toxicity. […] 30 minutes later, two (2) of the mice were administered vehicle only, two (2) received NAC 1200 mg/kg per os, two (2) received NBMI 200 mg/kg per os. The mice were sacrificed at 24 hours.

human TRPA1 = assay: Ratiometric calcium imaging of NAPQI activation of TRPA1 in HEK 293 cells; type: cell-based; conditions: 7 μM NAPQI; for inhibition of the activation of the receptor (TRPA1) by NAPQI: 4 μM test substance, HEK 293 cells expressing human TRPA1, FIG. 1
Method: The calcium ion channel TRPA 1 is activated by NAPQI. This activation may be determined by ratiometric calcium imaging.
HEK 293 cells expressing human TRPA1 were pre-incubated with 7 μM NAPQI and the calcium fluorophore FURA II. One experiment was run in the presence of 4 μM NBMI and the another was run in the presence of 4 μM NAC.

[2] = test system: paracetamol intoxicated mice; assay: NBMI versus vehicle in paracetamol intoxicated mice, i.p. paracetamol, synchronised oral dosing (AST, ALT); type: in vivo
Method: (§1) The ratio of AST: ALT can also be relevant in humans; a value at or below 1 is considered to indicate toxicity.
Mice were sacrificed at 24 hours after administration, following which levels of liver enzymes AST and ALT were measured.
In the NBMI-treated group, eleven (11) mice were treated.

[3] = Clinical trials of NBMI, adverse events; type: in vivo; conditions: 4.5-9 mg/kg dose in humans
[4] = Clinical proof of concept study: paracetamol and cys-paracetamol in venous blood after 1 g paracetamol with or without NBMI; type: in vivo, human; conditions: venous blood over eight hours
Method: A pilot clinical study was performed at the Lund Hospital Clinical Trial Unit, on three occasions.

[5] = test system: paracetamol intoxicated mice; assay: Paracetamol intoxicated mice study, oral paracetamol (ALT); type: in vivo
Method: as §1
20 minutes later, half of the mice (3) were administered vehicle (0.5% (w/v) carboxymethylcellulose 300-600 centipoises in water) only, half of the mice (3) received NBMI 100 mg/kg per os (NBMI dissolved in CMC as described below). […]

[6] = NAC 1200 mg/kg per os 30 minutes later
[7] = paracetamol 200 mg/kg i.p., synchronous oral NBMI 680 mg/kg in CMC, 24 hours
[8] = NBMI 200 mg/kg per os 30 minutes later

With CC(=O)N[C@@H](CS)C(=O)O [NAC, N-acetyl cysteine, reference compound] the AST level [1, 6] was 180 unit/L, the “average ALT level” value [1, 6] was 55 unit/L and the “inhibition of the activation of the receptor (TRPA1) by NAPQI” value (human TRPA1) was “only partial inhibition”.

For CC(=O)N=C1C=CC(=O)C=C1 [NAPQI, N-acetyl-p-benzoquinone imine], the receptor activation (human TRPA1; in the absence of NBMI or NAC) was “about 55%”.

With O=C(NCCS)c1cccc(C(=O)NCCS)c1 [NBMI, N,N-bis-2-mercaptoethyl isophthalamide] the “AST/ALT ratio, average” value ([2]; 680 mg/kg, 24 h) was 2.1, the “ALT, average” value [2, 7] was 952 units/L and the “AST, average” value [2, 7] was 753 units/L. For the same molecule, the “AST level (printed as ALT level)” value [1, 8] was 600 unit/L, the “average ALT level” value [1, 8] was 984 unit/L and the “drug related adverse events” value [3] was “no drug related adverse events”. For the same molecule, the “decrease of area under the curve (AUC) of cys-paracetamol” value ([4]; 600 mg NBMI one hour prior to 1 g paracetamol) was 23%, the “decrease of area under the curve (AUC) of cys-paracetamol” value ([4]; 1,200 mg NBMI two hours before 1 g paracetamol) was 73% and the “median ALT level” value ([5]; paracetamol 700 mg/kg per os, NBMI 100 mg/kg per os 20 minutes later, sacrificed at 17 hours) was 624 unit/L. The “median ALT lower than the median of the intoxicated animals” value ([5]; po, 100 mg/kg) was “about 95%” and the “inhibition of the activation of the receptor (TRPA1) by NAPQI” value (human TRPA1) was “almost completely inhibited”.
